# Reference: patent US6428823B1, “Biologically active aqueous fraction of an extract obtained from a mangrove plant Salvadora persica L” (Council of Scientific & Industrial Research, priority 2001, dated 2002)
# Tested on: mammalian tissues
# Assay: pharmacological screening of purified compounds in mammalian tissues
# Conditions: result in words
# Source text: The invention further relates to methods of screening pharmacological activities of the said compounds in mammalian tissues.
# vii) testing the pure compounds by using methods of pharmacology, and
# Pharmacological Testing of Pure Compounds
row,Compound,biological activity shown by the extract
1,C=C(C)[C@@H]1CC[C@]2(CO)CC[C@]3(C)[C@H](CC[C@@H]4[C@@]5(C)CC[C@H](O)C(C)(C)[C@@H]5CC[C@]43C)[C@@H]12 [Betulin],maintained
2,CCCCCCCCCCCCCCCC(=O)OC [Methyl palmitate],maintained
